Experimental data reported in patent publication US20100016402A1, “UNIT DOSE FORMULATIONS OF KETOROLAC FOR INTRANASAL ADMINISTRATION” (Roxro Pharma, Inc., priority 2008, published 2010).
Counter-ions that a name gives are not always drawn.

Experiments:
[1] = solubility in water at different pH
[2] = solubility of local anesthetic in ketorolac solution; type: physicochemical; details: 15% ketorolac, not re-dispersed by heating or adjusting the pH
[3] = degradation of ketorolac in solution; type: physicochemical; details: 1-keto analog proportional to amount of ketorolac and available oxygen
Excerpt: The amount of 1-keto analog produced is generally proportional to the amount of ketorolac in solution and available oxygen (e.g., in the head space of the container, such as those described in U.S. patent application Ser. No. 12/404,250, filed on Mar. 13, 2009, entitled, “Device for Intranasal Administration,”).

Structure (SMILES): CCOC(=O)c1ccc(N)cc1 [benzocaine]
- solubility ([1]; low pH): soluble
- solubility in water ([1]; physiological pH ranges of 4.5 to 7.2): low solubility
- precipitation in the presence of ketorolac ([2]; 6% benzocaine solution): precipitation was observed
- precipitation in the presence of ketorolac ([2]; 10% benzocaine solution): precipitation was observed

Structure (SMILES): CCOC(=O)c1ccc(N)cc1 [benzocaine hydrochloride]
- pH of the solution in water [1]: about 1.5
- solubility in water ([1]; water, pH not adjusted): soluble in water

Structure (SMILES): O=C(c1ccccc1)c1ccc2n1CCC2C(=O)O (stereo not shown) [ketorolac, 5-benzoyl-2,3-dihydro-1H-pyrrolizine-1-carboxylic acid]
- stability in solution (degradation products) [3]: produces several degradation products
